Measured values published in patent US20040147458A1, “Compositions to reduce exercise-induced swelling of joints” (priority 2003, published 2004).

Key:
[1] = tested on: Standard Bred horses; test: Joint swelling after racing in Standard Bred horses given ribose before and/or after each race; format: in vivo, horse
Excerpt: The dosage given should be adjusted carefully to each animal. It has been observed that the swelling reaction is variable; some horses have a great deal of swelling after each race and others are less affected. […] Beginning with a dose of 20 gm ribose, the dosages were adjusted upward. […] Although the weight of the horse was not a factor, the state of nourishment was important. Less well-nourished horses require less ribose for the prophylaxis and therapy of joint swelling. In those horses tested by Applicant, which had been maintained on the ribose-containing supplement, it was seen that a dosage of about 100 or 200 grams of ribose was required to prevent or reduce swelling. In all mammals it may be seen that increasing doses of ribose are necessary to provide the benefit of this invention. This seeming paradox may be due to the fact that mammals receiving ribose as a maintenance dietary supplement have more energy, run faster and thus sustain more acute exercise-related trauma to the joints. It must be stressed that whether or not horses are maintained on a ribose-containing dietary supplement such as that of Applicant, in order to obtain the benefits of this invention, the dosage and timing disclosed above must be followed. Twelve Standard Bred horses, three to eight years of age, were tested. […] The swelling was treated either with cold packs or rest. Time to recovery was approximately one hour to several days. In general, the horses were rested for three days and then exercised by jogging each day, running two miles and then increasing the miles to six to eight. The test horses were put on a schedule of ribose administration in a dosage of 40 gm before each race. […] Therefore, the standard procedure was to administer the optimal dose of ribose both before and after each race. […] Time to recovery of these animals was about ten hours. […] After the horses had been on ribose maintenance for a time, all required higher doses of ribose, up to 100 gm a dose given both before and after racing, in order to show a benefit.

[2] = tested on: Humans; test: Swollen, sore knee joints in human subjects taking ribose; format: in vivo
Excerpt: Non-runners can also experience swelling in the joints. One subject who works in construction and does a lot of lifting frequently has swollen knees with accompanying soreness. […] A heavy equipment operator has suffered from soreness in their knees for several years following an injury to the joint. […] The third subject is a competitive “strong man” who competes in such trials as lifting heavy rocks and pulling buses. In the course of their training and competition, they have stressed their knee joints, which are frequently swollen and sore. […] On one occasion, they ingested a dose of 30 grams of ribose and the soreness in their knees disappeared within twenty minutes.

[3] = tested on: Racing dogs, generally greyhounds; test: Joint swelling after racing in racing dogs given ribose before the race; format: in vivo, dog
Protocol: Racing dogs, generally greyhounds, are also susceptible to swollen joints after racing. […] The observed dosage for a horse was approximately 100 to 300 mg per kilogram body weight. Based on this observation, a greyhound weighing 65 pounds will benefit from a dose of about two to twelve grams of ribose which is approximately 65 to 300 mg per kilogram. The dosage should be given just before each race or hard workout. […] Administration can be by any convenient means. Ribose has a slightly sweet taste and dogs will readily drink a solution of ribose in water. Alternatively, the ribose solution can be sprayed into the dog's mouth for buccal absorption. […] As for horses, the ribose should not be given more than half an hour before the race or with other food or anything else that would delay absorption.

SMILES: O=C[C@H](O)[C@H](O)[C@H](O)CO [ribose, D-Ribose]
- joint swelling after race ([1]; 40 gm ribose before each race only, twelve horses): most of the animals still showed some joint swelling
- time to recovery ([1]; animals with moderate swelling despite ribose before and after race, cold packs applied): about ten
- resumption of training ([1]; compared with animals not given ribose before and after racing): able to resume training earlier
- benefit on swelling, ribose alone ([1]; easily absorbed dose of ribose alone given immediately before and immediately after each race): additional benefit was seen
- dose required to show a benefit ([1]; horses on ribose maintenance for a time, dose given both before and after racing): up to 100 gm
- joint swelling after race ([1]; optimal dose of ribose both before and after each race): the majority of the animals showed no swelling
- fraction of animals showing moderate swelling ([1]; optimal dose of ribose both before and after each race, cold packs applied): About one-third
- side-effects ([1]; ribose at suggested levels): no side-effects
- attitude of the horses after a race (subjective measure) ([1]; ribose given only before the race): willing to play and move around their stalls
- symptoms of swollen and sore knee joints ([2]; competitive strong man, doses of five to ten grams): symptoms are lessened
- time until soreness in knees disappeared ([2]; competitive strong man, single dose of 30 grams): twenty
- knee soreness ([2]; construction worker with swollen knees, dose of about five grams): soreness subsides
- knee achiness ([2]; heavy equipment operator, soreness after joint injury, five gram dose): effective to lessen the achiness
- prevention or reduction of joint swelling ([3]; high dose before the race only): adequate in most cases to prevent or reduce joint swelling
- expected benefit on swollen joints after racing ([3]; proper dosage of ribose, about two to twelve grams for a 65 pound greyhound): expected to give the same benefit as is shown for horses
